# Measured values as given in ChEMBL document CHEMBL3045881, “(Hetero)aroyl esters of 2-(N-phthalimido)ethanol and analogues: parallel synthesis, anti-HIV-1 activity and cytotoxicity” (Med Chem Res, 2010).
# What was measured:
# [1] = test system: Human immunodeficiency virus 1; assay: Antiviral activity against wild type Human immunodeficiency virus 1 infected human MT4 cells assessed as inhibition of virus-induced cytopathic effect after 4 days by MTT assay; assay type: functional, organism-based; conditions: Human immunodeficiency virus 1, MT4, 96 h
# [2] = Cytotoxicity against mock infected Homo sapiens (human) MT4 cells assessed as cell viability by MTT assay; assay type: cell-based
Structure (SMILES),EC50 [1],CC50 [2]
CCCCCc1ccc(C(=O)OCCN2C(=O)c3ccccc3C2=O)cc1,14 µM,> 100 µM
O=C(OCCN1C(=O)c2ccccc2C1=O)c1cccc(F)c1,75 µM,> 100 µM
O=C(OCCOc1ccc([N+](=O)[O-])cc1)c1ccc(Cl)c([N+](=O)[O-])c1,> 47 µM,47 µM
O=C(OCCN1C(=O)c2ccccc2C1=O)c1cc(F)ccc1Cl,> 100 µM,> 100 µM
CC(COC(=O)c1cc(F)ccc1F)N1C(=O)c2ccccc2C1=O (racemic),> 100 µM,> 100 µM
O=C(OCCN1C(=O)c2ccccc2C1=O)c1cc(Cl)cc(Cl)c1,27 µM,> 100 µM
Cc1ccc(F)cc1C(=O)OCCN1C(=O)c2ccccc2C1=O,47 µM,> 100 µM
O=C(OCN1C(=O)c2ccccc2C1=O)c1ccc(Cl)c([N+](=O)[O-])c1,> 11 µM,11 µM
Cc1cc(C(=O)OCCN2C(=O)c3ccccc3C2=O)ccc1Br,60 µM,> 100 µM
O=C(OCCN1C(=O)c2ccccc2C1=O)c1cccc(Cl)c1,93 µM,> 100 µM
O=C(OCCCN1C(=O)c2ccccc2C1=O)c1cc(F)ccc1F,> 100 µM,> 100 µM
O=C(OCCN1C(=O)c2ccccc2C1=O)c1ccc2ccccc2c1,> 100 µM,> 100 µM
O=C(OCCN1C(=O)c2ccccc2C1=O)c1ccc(Cl)c(Cl)c1,0.7 µM,> 100 µM
O=C(OC1Cc2cccc3cccc1c23)c1ccc(Cl)c([N+](=O)[O-])c1 (racemic),> 100 µM,1.6 µM
Cc1cc(C(=O)OC2Cc3cccc4cccc2c34)ccc1Br (racemic),> 100 µM,8 µM
O=C(OCCc1c[nH]c2ccccc12)c1ccc(Cl)c([N+](=O)[O-])c1,> 6 µM,6 µM
CC(C)(C)c1ccc2c(c1)C(=O)N(CCOC(=O)c1cc(F)ccc1F)C2=O,> 100 µM,> 100 µM
O=C(OCCN1C(=O)[C@H]2CC=CC[C@H]2C1=O)c1cc(F)ccc1F,> 100 µM,> 100 µM
O=C(OCCN1C(=O)c2ccccc2C1=O)c1ccc(F)c(F)c1,> 100 µM,> 100 µM
Cc1cc(C(=O)OCCN2C(=O)c3ccccc3C2=O)c(C)o1,28 µM,> 100 µM
O=C(OCCN1C(=O)c2ccccc2C1=O)c1cc(C(F)(F)F)ccc1F,> 100 µM,> 100 µM
O=C(OCCN1C(=O)c2ccccc2C1=O)c1cc(F)cc(F)c1,> 100 µM,> 100 µM
CC(CN1C(=O)c2ccccc2C1=O)OC(=O)c1ccc(Cl)c([N+](=O)[O-])c1 (racemic),> 34 µM,34 µM
O=C(OCCN1C(=O)c2ccccc2C1=O)c1cc([N+](=O)[O-])ccc1Cl,> 30 µM,30 µM
O=C(OCCN1C(=O)[C@H]2CC=CC[C@H]2C1=O)c1ccc(Cl)c([N+](=O)[O-])c1,> 36 µM,36 µM
O=C(OCCOc1ccc(Br)cc1)c1ccc(Cl)c([N+](=O)[O-])c1,> 59 µM,59 µM
O=C(OCCN1C(=O)c2ccccc2C1=O)c1cccc(F)c1F,> 100 µM,> 100 µM
